Target: T1, DmX receptor (DmXR) (Drosophila melanogaster, UniProt Q70GQ8)
T1 construct: gene mtt; HA-DmXR WT, transiently expressed in HEK 293 cells
T1 sequence (Q70GQ8 1-1073): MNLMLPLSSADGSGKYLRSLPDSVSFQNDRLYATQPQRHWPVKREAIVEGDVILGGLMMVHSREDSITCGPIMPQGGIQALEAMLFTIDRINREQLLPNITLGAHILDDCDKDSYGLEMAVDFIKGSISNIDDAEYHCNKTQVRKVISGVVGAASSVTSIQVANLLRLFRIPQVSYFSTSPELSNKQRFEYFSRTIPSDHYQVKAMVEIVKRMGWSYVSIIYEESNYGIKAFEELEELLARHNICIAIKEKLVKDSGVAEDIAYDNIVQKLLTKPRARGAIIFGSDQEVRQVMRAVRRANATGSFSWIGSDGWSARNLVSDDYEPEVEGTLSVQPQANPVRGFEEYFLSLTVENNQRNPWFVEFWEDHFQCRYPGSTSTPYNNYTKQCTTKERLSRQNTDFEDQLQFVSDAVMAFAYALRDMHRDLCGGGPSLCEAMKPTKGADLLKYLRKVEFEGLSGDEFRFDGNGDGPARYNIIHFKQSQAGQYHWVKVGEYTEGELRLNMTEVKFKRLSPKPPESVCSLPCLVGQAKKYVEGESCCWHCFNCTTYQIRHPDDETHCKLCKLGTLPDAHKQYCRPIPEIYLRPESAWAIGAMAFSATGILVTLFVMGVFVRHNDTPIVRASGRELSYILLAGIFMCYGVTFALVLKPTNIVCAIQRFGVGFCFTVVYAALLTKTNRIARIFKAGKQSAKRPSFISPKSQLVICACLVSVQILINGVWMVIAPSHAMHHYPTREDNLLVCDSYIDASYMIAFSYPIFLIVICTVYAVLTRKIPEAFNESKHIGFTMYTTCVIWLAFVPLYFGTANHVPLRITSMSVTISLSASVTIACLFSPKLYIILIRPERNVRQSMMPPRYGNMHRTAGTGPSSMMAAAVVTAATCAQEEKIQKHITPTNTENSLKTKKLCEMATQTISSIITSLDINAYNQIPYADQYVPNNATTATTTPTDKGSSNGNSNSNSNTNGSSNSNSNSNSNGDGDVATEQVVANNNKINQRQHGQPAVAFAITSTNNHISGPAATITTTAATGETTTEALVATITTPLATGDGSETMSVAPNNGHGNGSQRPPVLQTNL
Test: IP accumulation in HEK cells coexpressing DmXR and Gqi9; inhibition of activation by […] L-canavanine (antagonist)
Format: cell-based

## CN=C(N)NCCC[C@H](N)C(=O)O [NMA, N-methyl-L-arginine]
  IC50: 200 ± 200 µM
